Source: patent publication US20040115284A1, “Use of gamma-GT inhibitors for the treatment of degenerative diseases” (priority 2001, published 2004)
Marks after values point to notes of the source that are not given here.

Tests used:
Glutathione Peroxidase = experiment: Glutathione peroxidase activity in Mpv17 −/− cells (LUSVX) grown in presence of MnTBAP or acivicin; type: cell-based, mouse
Description: (§1) Kidneys from background mice (CFW×Balb/c) and transgenic homozygous Mpv17−/− mice (H. Weiher, T. Noda, D. A. Gray, A. H. Sharpe and R. Jaenisch (1990), Cell, 62, pp. 425434) were obtained at an age of 7 to 9 months and frozen in liquid nitrogen. LUSVX cells (SV40 immortalised fibroblasts from the lungs of Mpv17−/− mice), and NIX1 5 cells (Mpv+/+ cells derived from LUSVX cells by stable transfection of an expression construct for the human Mpv17 cDNA) (A. Reuter. A. Nestl, R. M. Zwacka, J. Tuckermann, R. Waldherr, E. M. Wagner, M. Hoyhtya, A. M. Meyer zum Gottesberge, P. Angel and H. Weiher (1998), Molecular Biology of the Cell, 9, pp. 1675-1682) were grown in DMEM including 10% fetal calf serum (FCS) and 1 μg/ml puromycin (NIX15 cultures) at 6.5% CO2 Cells were harvested by trypsinisation and each 5×10^6 cells were washed in 1.5 ml of phosphate-buffered saline (PBS) before freezing the pellet in liquid nitrogen. Where indicated, Mn(III)tetrakis(4-benzoic acid)porphyrin (MnTBAP), final concentration 10 μM (Y. Noda, M. Kohno, A. Mori and L. Packer (1999), Methods in Enzymology, 299, pp. 28-34) (Calbiochem, Schwalbach, FRG), or the γ-GT inhibitor acivicin (AT-125), final concentration 50 μM (Sigma, Deisenhofen, FRG) were added in DMEM/10% FCS 18 h before harvesting the cells. Kidneys and cells were stored frozen at −80° C.
Cell fractions were prepared by differential centrifugation from 20% tissue and cell homogenates (w/v) in 10 mM potassium phosphate buffer, pH 7.0, containing 0.25 M sucrose, 150 mM potassium chloride, 1 mM EDTA, 2 mM dithiothreitol, and 50 μM phenylmethylsulfonyl fluoride. Enzyme activities were determined at 25° C.: catalase in the 25,000×g (10 min) pellet H. E. Aebi (1983), In Methods of Enzymatic Analysis (ed. H. U. Bergmeyer), Verlag Chemie, Weinheim, pp. 273-276); glutathione peroxidase (GPx) (R. A. Lawrence and R. F. Burk (1976), Biochemical Biophysical Research Communications, 71, pp. 952-958), GSSG reductase (Goldberg, D. M. S. R. F. (1983) In Methods of Enzymatic Analysis (ed. H. U. Bergmeyer) Verlag Chemie, Weinheim, pp. 258-265), glutathione transferase (GST) with 1-chloro-2,4-dinitrobenzene (CDNB) W. H. Habig, M. J. Pabst and W. B. Jakoby (1974), Journal Biological Chemistry, 249, pp. 7130-7139, and superoxide dismutase (SOD) (S. Marklund and G. Marklund (1974), European Journal of Biochemistry, 47, pp. 469-474) in the 105,000×g (45 min) supernatant; γ-glutamyl transpeptidase (γ-GT) ) (S. Marklund and G. Marklund (1974), European Journal of Biochemistry, 47, pp. 469-474) in the resuspended 105,000×g pellet containing 1% Triton X-100. Protein was measured by the method of Bradford using bovine serum albumin as standard (M. M. Bradford (1976), Analytical Biochemistry, 72, pp. 248-254).

[1] = target: T1, γ-Glutamyl Transpeptidase (Mus musculus, UniProt Q60928); experiment: γ-glutamyl transpeptidase activity in Mpv17 −/− cells (LUSVX) grown in presence of MnTBAP or acivicin; type: cell-based
T1 construct: in the resuspended 105,000×g pellet containing 1% Triton X-100; endogenous in cells; host or cells: LUSVX cells (SV40-immortalised lung fibroblasts from Mpv17−/− mice)
T1 sequence (Q60928 1-379 limits assumed): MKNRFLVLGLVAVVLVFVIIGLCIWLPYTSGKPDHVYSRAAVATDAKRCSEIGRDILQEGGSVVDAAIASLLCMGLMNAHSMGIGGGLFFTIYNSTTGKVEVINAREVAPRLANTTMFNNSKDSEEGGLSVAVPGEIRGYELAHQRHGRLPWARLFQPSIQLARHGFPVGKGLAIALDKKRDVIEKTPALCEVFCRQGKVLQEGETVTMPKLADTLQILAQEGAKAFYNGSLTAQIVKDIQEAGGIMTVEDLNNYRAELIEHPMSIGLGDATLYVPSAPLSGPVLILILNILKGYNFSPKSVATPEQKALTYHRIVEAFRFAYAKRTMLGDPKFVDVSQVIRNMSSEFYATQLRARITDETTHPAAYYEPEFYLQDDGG
T1 sequence (Q60928 380-568 limits assumed): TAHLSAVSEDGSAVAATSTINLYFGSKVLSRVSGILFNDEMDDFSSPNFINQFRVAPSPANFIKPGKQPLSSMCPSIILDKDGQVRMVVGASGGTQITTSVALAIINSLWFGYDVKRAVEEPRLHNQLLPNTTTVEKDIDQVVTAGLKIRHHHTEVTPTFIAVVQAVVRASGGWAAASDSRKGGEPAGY
Description: as §1
Cell fractions were prepared by differential centrifugation from 20% tissue and cell homogenates (w/v) in 10 mM potassium phosphate buffer, pH 7.0, containing 0.25 M sucrose, 150 mM potassium chloride, 1 mM EDTA, 2 mM dithiothreitol, and 50 μM phenylmethylsulfonyl fluoride. […] Protein was measured by the method of Bradford using bovine serum albumin as standard (M. M. Bradford (1976), Analytical Biochemistry, 72, pp. 248-254).

pGPx mRNA = pGPx mRNA level by quantitative RT-PCR in Mpv17−/− cells; type: cell-based, mouse; conditions: Mpv17−/− cells with acivicin (γ-GT inhibition), FIG. 2B; β-actin reference
Description: (§2) Kidneys from background mice (CFW×Balb/c) and transgenic homozygous Mpv17-/- mice ([…]. Noda, D. A. Gray, A. H. Sharpe and R. Jaenisch (1990), Cell, 62, pp. 425434) were obtained at an age of 7 to 9 months and frozen in liquid nitrogen. LUSVX cells (SV40 immortalised fibroblasts from the lungs of Mpv17-/- mice), and NIX1 5 cells (Mpv+/+ cells derived from LUSVX cells by stable transfection of an expression construct for the human Mpv17 cDNA) (A. Reuter. […]. Tuckermann, […]. Wagner, […]. Meyer zum Gottesberge, P. Angel and […] (1998), Molecular Biology of the Cell, 9, pp. 1675-1682) were grown in DMEM including 10% fetal calf serum (FCS) and 1 μg/ml puromycin (NIX15 cultures) at 6.5% CO2 Cells were harvested by trypsinisation and each 5×10^6 cells were washed in 1.5 ml of phosphate-buffered saline (PBS) before freezing the pellet in liquid nitrogen. […] Noda, M. Kohno, A. Mori and L. […] Kidneys and cells were stored frozen at -80° C. mRNA levels were also measured. In particular, levels of mRNA were determined by quantitative RT-PCR. […] Amplified mRNA was separated on 1.5% agarose gels in Tris borate buffer (F. M. Ausubel (1995) Short protocols in molecular biology: a compendium of methods from current protocols in molecular biology. Wiley Press, New York) visualized with vista green (Amersham, Freiburg, FRG) and quantified with a FLA2000 Imager (FUJI).

SOD mRNA = SOD mRNA levels by quantitative RT-PCR in Mpv17−/− cells; type: cell-based, mouse; conditions: Mpv17−/− cells with acivicin (γ-GT inhibition), FIG. 2B; β-actin reference
Description: as §2

γ-GT = target: T2, γ-GT (Rattus norvegicus, UniProt P07314); conditions: short-term ischemia of rat kidney; Cutrin et al. 2000; cited from earlier work
T2 construct: oxidation damage during short-term ischemia of rat kidney
T2 sequence (P07314 1-379 limits assumed): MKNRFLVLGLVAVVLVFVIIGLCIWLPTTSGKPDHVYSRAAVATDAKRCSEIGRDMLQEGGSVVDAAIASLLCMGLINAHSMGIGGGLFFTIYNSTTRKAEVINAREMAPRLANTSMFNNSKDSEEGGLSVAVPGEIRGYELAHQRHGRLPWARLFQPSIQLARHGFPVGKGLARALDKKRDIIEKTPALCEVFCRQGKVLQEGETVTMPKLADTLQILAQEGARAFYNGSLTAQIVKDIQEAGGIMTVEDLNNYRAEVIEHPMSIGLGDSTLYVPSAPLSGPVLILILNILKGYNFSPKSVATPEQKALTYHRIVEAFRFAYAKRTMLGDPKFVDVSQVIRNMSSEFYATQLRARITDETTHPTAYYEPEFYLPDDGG
T2 sequence (P07314 380-568 limits assumed): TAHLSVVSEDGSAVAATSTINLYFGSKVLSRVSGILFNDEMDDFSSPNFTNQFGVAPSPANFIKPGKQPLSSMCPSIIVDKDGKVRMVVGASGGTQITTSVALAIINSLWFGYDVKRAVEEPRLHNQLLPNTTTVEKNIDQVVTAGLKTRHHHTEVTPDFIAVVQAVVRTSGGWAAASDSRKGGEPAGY

[2] = Mpv17−/− cells (LUSVX) grown in the presence of MnTBAP
[3] = LUSVX cells, MnTBAP 10 μM or acivicin 50 μM added 18 h before harvesting, means ± SEM (n = 3)

With `O=C(O)c1ccc(-c2c3nc(c(-c4ccc(C(=O)O)cc4)c4ccc([n-]4)c(-c4ccc(C(=O)O)cc4)c4nc(c(-c5ccc(C(=O)O)cc5)c5ccc2[n-]5)C=C4)C=C3)cc1.[Mn+3]` [MnTBAP, Mn(III)tetrakis(4-benzoic acid)porphyrin] the “Glutathione Peroxidase activity, % of controls” value (Glutathione Peroxidase; LUSVX cells, MnTBAP 10 μM or acivicin 50 μM, 18 h, relative to untreated LUSVX) was “(104%)^a)”, the “change of GPx activity (in words)” value (Glutathione Peroxidase; [2]) was “Neither γ-GT nor GPx activities were changed significantly” and the “γ-Glutamyl Transpeptidase activity” value [1, 3] was 0.94 ± 0.03 nmol/min per mg of protein. The “γ-Glutamyl Transpeptidase activity, % of controls” value ([1]; LUSVX cells, MnTBAP 10 μM, 18 h, relative to untreated LUSVX) was “(95%)” and the “change of γ-GT activity (in words)” value [1, 2] was “Neither γ-GT nor GPx activities were changed significantly”.
In the case of `N[C@H](C(=O)O)[C@@H]1CC(Cl)=NO1` [acivicin], the “Glutathione Peroxidase activity” value (Glutathione Peroxidase; [3]) is reported as 53.5 ± 2.0 nmol/min per mg of protein, the “increase of GPx activity” value (Glutathione Peroxidase; Mpv17−/− cells grown in the presence of acivicin) is reported as “about 1.6 fold” and the activity at 50 µM (Glutathione Peroxidase; Mus musculus, LUSVX cells, MnTBAP 10 μM or acivicin 50 μM, 18 h, relative to untreated LUSVX, read-out: Glutathione Peroxidase activity, % of controls) is reported as 162%. The “pGPx mRNA level” value (pGPx mRNA) was “significant increase”, the “SOD mRNA levels” value (SOD mRNA) was “significant increase” and the “oxidation damage caused by γ-GT upregulation” value (γ-GT) was “inhibitable”.
